Reference: publication PMC10818931, “In Vitro Evaluation of Drug–Drug Interaction Potential of Epetraborole, a Novel Bacterial Leucyl-tRNA Synthetase Inhibitor” (Pharmaceuticals, 2024)

How the values were obtained:
BCRP = molecular target: T1, BCRP (Homo sapiens, UniProt Q9UNQ0); test: Substrate potential for BCRP, bidirectional permeability in BCRP-MDCK; type: in vitro ADME; conditions: human; BCRP-MDCK; read-out: Efflux ratio of control compound
T1 construct: host or cells: MDCK (BCRP-MDCK)
T1 sequence (Q9UNQ0 1-655): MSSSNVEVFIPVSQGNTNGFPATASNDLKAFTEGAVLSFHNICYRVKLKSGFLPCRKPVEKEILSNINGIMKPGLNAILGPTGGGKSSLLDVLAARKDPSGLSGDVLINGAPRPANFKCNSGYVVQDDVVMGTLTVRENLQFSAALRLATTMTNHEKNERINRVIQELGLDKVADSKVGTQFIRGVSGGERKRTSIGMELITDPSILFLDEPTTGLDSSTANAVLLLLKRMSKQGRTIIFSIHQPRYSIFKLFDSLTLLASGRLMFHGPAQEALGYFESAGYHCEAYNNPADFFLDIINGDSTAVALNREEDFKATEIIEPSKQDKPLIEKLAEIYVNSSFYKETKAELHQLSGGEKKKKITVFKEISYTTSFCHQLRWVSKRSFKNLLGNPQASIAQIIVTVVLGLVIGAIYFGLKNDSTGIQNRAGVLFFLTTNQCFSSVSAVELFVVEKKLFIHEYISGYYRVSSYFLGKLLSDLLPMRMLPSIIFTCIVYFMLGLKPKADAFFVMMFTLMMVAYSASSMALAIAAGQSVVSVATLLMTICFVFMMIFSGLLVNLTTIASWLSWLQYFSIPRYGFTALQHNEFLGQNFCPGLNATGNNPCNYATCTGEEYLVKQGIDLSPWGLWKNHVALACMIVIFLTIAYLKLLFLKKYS

CYP1A2 = test: CYP mRNA induction in plated human hepatocytes (qPCR); conditions: CYP1A2, flumazenil 25 µM
Procedure: (§1) The induction potential of EBO and M3 on CYP1A2, CYP2B6, and 3A4 was evaluated by incubating the test articles with plated human hepatocytes from 3 individual donors (GKJ, ZEY, WKF) in triplicate according to WuXi AppTec (Cranbury, NJ, USA) SOP.
(§2) At the end of incubation, the RNA of human hepatocytes was isolated and the mRNA expression levels of CYP 1A2, 2B6, and 3A4 were evaluated by using real-time polymerase chain reaction (qPCR) after being reverse-transcribed (RT) to cDNA following manufacturer’s instruction (thermos Fisher Scientific (Waltham, MA, USA). On the last dosing day with EBO or M3, incubation samples were extracted in triplicate by the addition of ice-cold quench solutions at 0, 0.5, 1, 2, 4, 6, and 24 h after dosing and the extracted samples were analyzed using LC-MS/MS to determine the EBO or M3 concentration in each sample.

CYP2B6 = test: as above; conditions: CYP2B6; for mRNA Induction Fold in Controls NC: flumazenil 25 µM; for mRNA Induction Fold in Controls PC: phenobarbital 750 µM
Procedure: as §1, §2

CYP3A4 = test: as above; conditions: CYP3A4, flumazenil 25 µM
Procedure: as §1, §2

in vitro = conditions: human, Caco-2
Procedure: ^14C-EBO permeability in Caco-2 Cells (MDR1/Protein Glycoprotein or P-gp) was determined using methodologies described previously. The apparent permeability of ^14C-EBO was determined in both the apical to basolateral and the basolateral to apical directions, in triplicate, at final concentrations of 1, 10, and 100 μM. Cell monolayers were incubated with ^14C-EBO at 37 °C for 1, 2, 3, and 4 h. The transepithelial electrical resistance (TEER) values of the monolayers prior to and following each experiment were measured to confirm the integrity of the Caco-2 cell monolayers. The apparent permeability of ^14C-EBO (at a final concentration of 10 μM) was determined in both the apical to basolateral and basolateral to apical directions under the same conditions as previously described in the presence of P-gp inhibitors cyclosporine A (10 μM) and verapamil (100 μM) in the donor compartment.

[1] = donor one, control of EBO experiment
[2] = donor one, control of M3 experiment
[3] = donor three, control of EBO experiment
[4] = donor three, control of M3 experiment
[5] = donor two, control of EBO experiment
[6] = donor two, control of M3 experiment

Question: With `Nc1nc(Cl)nc2c1ncn2[C@H]1C[C@H](O)[C@@H](CO)O1` [cladribine, reference compound] as the molecule, how does the efflux ratio (BCRP) read?
Answer: 288

Question: With `CCOC(=O)c1ncn2c1CN(C)C(=O)c1cc(F)ccc1-2` [flumazenil] as the molecule, how does the “mRNA Induction Fold in Controls NC” value (CYP1A2; [1]) read?
Answer: 0.71 Fold

Question: And the “mRNA Induction Fold in Controls NC” value (CYP1A2; [2])?
Answer: 0.94 Fold

Question: What about the “mRNA Induction Fold in Controls NC” value (CYP1A2; [3]) of the same molecule?
Answer: 0.75 Fold

Question: What about the “mRNA Induction Fold in Controls NC” value (CYP1A2; [4]) of the same molecule?
Answer: 0.74 Fold

Question: What about the “mRNA Induction Fold in Controls NC” value (CYP1A2; [5]) of the same molecule?
Answer: 0.94 Fold

Question: And the “mRNA Induction Fold in Controls NC” value (CYP1A2; [6])?
Answer: 0.82 Fold

Question: And the “mRNA Induction Fold in Controls NC” value (CYP2B6; [1])?
Answer: 0.84 Fold

Question: And the “mRNA Induction Fold in Controls NC” value (CYP2B6; [2])?
Answer: 0.91 Fold

Question: What about the “mRNA Induction Fold in Controls NC” value (CYP2B6; [3]) of the same molecule?
Answer: 1.00 Fold

Question: And the “mRNA Induction Fold in Controls NC” value (CYP2B6; [4])?
Answer: 0.87 Fold

Question: What about the “mRNA Induction Fold in Controls NC” value (CYP2B6; [5]) of the same molecule?
Answer: 1.09 Fold

Question: And the “mRNA Induction Fold in Controls NC” value (CYP2B6; [6])?
Answer: 0.87 Fold

Question: And the “mRNA Induction Fold in Controls NC” value (CYP3A4; [1])?
Answer: 0.89 Fold

Question: And the “mRNA Induction Fold in Controls NC” value (CYP3A4; [2])?
Answer: 1.06 Fold

Question: And the “mRNA Induction Fold in Controls NC” value (CYP3A4; [3])?
Answer: 0.98 Fold

Question: And the “mRNA Induction Fold in Controls NC” value (CYP3A4; [4])?
Answer: 0.87 Fold

Question: And the “mRNA Induction Fold in Controls NC” value (CYP3A4; [5])?
Answer: 0.96 Fold

Question: What about the “mRNA Induction Fold in Controls NC” value (CYP3A4; [6]) of the same molecule?
Answer: 0.66 Fold

Question: Which Papp (in vitro) does the source give for `OC[C@@H](O)[C@@H](O)[C@H](O)[C@H](O)CO` [mannitol, reference compound] here?
Answer: 0.19 to 0.69 ×10⁻⁶ cm/s

Question: With `CCC1(c2ccccc2)C(=O)NC(=O)NC1=O` [phenobarbital] as the molecule, how does the “mRNA Induction Fold in Controls PC” value (CYP2B6; [1]) read?
Answer: 7.45 Fold

Question: What about the “mRNA Induction Fold in Controls PC” value (CYP2B6; [2]) of the same molecule?
Answer: 9.17 Fold

Question: And the “mRNA Induction Fold in Controls PC” value (CYP2B6; [3])?
Answer: 6.64 Fold

Question: And the “mRNA Induction Fold in Controls PC” value (CYP2B6; [4])?
Answer: 6.86 Fold

Question: What about the “mRNA Induction Fold in Controls PC” value (CYP2B6; [5]) of the same molecule?
Answer: 6.88 Fold

Question: And the “mRNA Induction Fold in Controls PC” value (CYP2B6; [6])?
Answer: 6.29 Fold
